From ChEMBL document CHEMBL5365552, “Tryptamines and Mental Health: Activating the 5-HT Receptor for Therapeutic Potential” (ACS Med Chem Lett, 2023) come the findings set out here.

Common to all, as to format: ADME, organism-based
A short description of data set [1]: Prodrug conversion in rat assessed as 4-OH-DiPT formation by measuring Tmax at 2 mg/kg, sc measured for 15 to 360 mins by LCMS analysis. The settings on record: in vivo, time 15-360 min.
Data set [2] can be described thus: Prodrug conversion in rat assessed as 4-OH-DiPT formation by measuring bioavailability at 2 mg/kg, sc measured for 15 to 360 mins by LCMS analysis. The settings on record: in vivo, time 15-360 min.
Data set [3] can be described thus: Prodrug conversion in rat assessed as 4-OH-DiPT formation by measuring AUC at 2 mg/kg, sc measured for 15 to 360 mins by LCMS analysis. Set-up: dose 2 mg/kg, time upper 360 min, time lower 15 min, route sc. The settings on record: in vivo.
A short description of data set [4]: Prodrug conversion in rat assessed as 4-OH-DiPT formation by measuring Cmax at 2 mg/kg, iv measured for 15 to 360 mins by LCMS analysis. Particulars: in vivo. Set-up: time upper 360 min, dose 2 mg/kg, time lower 15 min, route iv.
Data set [5] is described as follows: Prodrug conversion in rat assessed as 4-OH-DiPT formation by measuring Cmax at 2 mg/kg, sc measured for 15 to 360 mins by LCMS analysis. Also on record: time upper 360 min, time lower 15 min, dose 2 mg/kg, route sc. Particulars: in vivo.
Data set [6] can be described thus: Prodrug conversion in rat assessed as 4-OH-DiPT formation by measuring AUC at 2 mg/kg, iv measured for 15 to 360 mins by LCMS analysis. Also on record: dose 2 mg/kg, time 15-360 min, route iv. The settings on record: in vivo.

Consider `CC(C)N(CCc1c[nH]c2cccc(OC(=O)CCCC(=O)O)c12)C(C)C`, for which the Tmax in data set [1] stood at 36.6 min. Besides, the F in data set [2] was 89%. For the same molecule, the AUC came to 134 ng·h/mL in data set [3] and 152 ng·h/mL in data set [6]. For the same molecule, the Cmax in data set [4] was 458 ng/mL; in data set [5], 103 ng/mL.

What is called Tmax is the time at which the peak concentration occurs. Broadly, the AUC is concentration integrated over time. Usually Cmax stands for the peak of the concentration-time curve.
